The test system of one series is Aphis fabae. Briefly: Critical concentration test/root-systemic action. The class given is in vivo. The settings on record: 48 h, 20 ppm in soil, infested after 7 days, evaluated after a further 2 days, read-out: Degree of destruction in % at active compound concentrations in ppm (root-systemic action). The method, then:
Critical concentration test/root-systemic action
Solvent: 4 parts by weight of acetone
(§1) Emulsifier: 1 part by weight of alkylaryl polyglycol ether
To produce a suitable preparation of active compound, 1 part by weight of active compound is mixed with the stated amount of solvent, the stated amount of emulsifier is added and the concentrate is diluted with water to the desired concentration.
The preparation of active compound is intimately mixed with soil. The concentration of the active compound in the preparation is of practically no importance, only the amount by weight of active compound per unit volume of soil, which is given in ppm (=mg/1), being decisive. The treated soil is transferred into pots and these are planted with pregerminated broad beans. The active compound can in this way be taken up from the soil by the roots of the plants and be transported into the leaves.
After a further 2 days, the evaluation is made by counting or estimating the dead animals. The root-systemic action of the active compound is deduced from the mortality figures. It is 100% if all test animals have been killed and 0% if just as many test insects are still alive as in the case of the untreated control.

Series [1] deals with Lucilia cuprina res. larvae. The series can be described thus: Test with resistant Lucilia cuprina larvae. The settings on record: for mortality at 100 ppm: Lucilia cuprina, read-out: effectiveness (degree of destruction). The class given is in vivo. The method, then: Test with resistant Lucilia cuprina larvae
Emulsifier: 35 parts by weight of ethylene glycol monomethyl ether 35 parts by weight of nonylphenol polyglycol ether
To produce a suitable preparation of active compound, three parts by weight of active compound are mixed with seven parts by weight of the abovementioned mixture and the concentrate thus obtained is diluted with water to the particular desired concentration.
About 20 Lucilia cuprina res. larvae are introduced into a test tube which contains approx. 1 cm^3 of horse meat and 0.5 ml of the preparation of active compound. After 24 hours, the degree of destruction is determined.

Another series relates to Ctenocephalides felis. The series can be described thus: In-vitro flea test (all stages of development). It is filed as in vivo. The settings on record: no adult fleas after 11/2 times the development time. Here is the method:
In-vitro flea test (all stages of development)
Test object: All stages (eggs, larvae, pupae and adults) of Ctenocephalides felis.
Test method: Bloodmeal is dried overnight in a shallow dish at approximately 70° C. and subsequently screened using a mesh size of 0.63 mm.
1.8 g portions of the bloodmeal which has been prepared in this manner are placed into plastic Petri dishes .o slashed. 9.8 cm.
Using an Eppendorf pipette, 0.2 ml of the substance are added to the 1.8 g portions of bloodmeal (dilution 1:10). This means that for a use concentration of 1 ppm, the aqueous solution must have a concentration of 10 ppm. The solution is applied dropwise and uniformly over the entire area covered by the bloodmeal.
The dishes which have been prepared in this manner are allowed to dry overnight. Using a suitable device, the substance, now in the form of dried lumps of bloodmeal, is broken up and distributed homogeneously in the Petri dish by swirling. To the test dishes which have been prepared in this manner there is now added a spatula--tipful of flea eggs which have been obtained by screening (and which are derived from experimentally infected cats). The dish is sealed using Parafilm and shaken vigorously.
The test materials are incubated at 25° C. and a relative humidity of 85%. At certain intervals, the dishes are examined for stages of development of the fleas.
Test criterion: The criterion for the in-vitro activity of a substance is defined as the inhibition of flea development, or a standstill during the development before reaching the adult stage.
Effective: No adult fleas found after 11/2 times the development time.
Ineffective: Adult fleas found after 11/2 times the development time.

In series [2] the test system is Musca domestics, strain WHO(N). Briefly: Fly test. Conditions: 6 h, read-out: activity (flies destroyed). It is filed as in vivo. The method, then: Test animals: Musca domestics, strain WHO(N)
Solvent: 35 parts by weight of ethylene glycol mono-methyl ether
35 parts by weight of nonylphenol polyglycol ether
To produce a suitable formulation, three parts by weight of active compound are mixed with seven parts of the abovementioned solvent-emulsifier mixture and the emulsion concentrate thus obtained is diluted with water to the particular desired concentration.
2 ml of this preparation of active compound are pipetted onto paper filter discs (.o slashed. 9.5 cm) located in Petri dishes of a suitable size. After the discs have dried, 25 test animals are transferred into the Petri dishes and covered.
After 6 hours, the activity of the preparation of active compound is determined. The activity is expressed in %. 100% means that all flies have been destroyed; 0% means that no flies have been destroyed.

A further series relates to Nephotettix cincticeps. Briefly: Nephotettix test. The class given is in vivo, Nephotettix cincticeps (green rice leafhopper). Conditions: 144 h, after 6d, read-out: Degree of destruction in % after 6d; for mortality at 1e-05 %: active compound concentration 0.00001 %; for mortality at 0.0001 %: active compound concentration 0.0001 %; for mortality at 0.001 %: active compound concentration 0.001 %. Here is the method:
(§2) Solvent: 7 parts by weight of dimethylformamide
as §1
(§3) To produce a suitable preparation of active compound, 1 part by weight of active compound is mixed with the stated amount of solvent and the stated amount of emulsifier, and the concentrate is diluted with water to the desired concentration.
Rice seedlings (Oryza sativa) are treated by being dipped into the preparation of active compound of the desired concentration and are infested with larvae of the green rice leafhopper (Nephotettix cincticeps) while the seedlings are still moist.
After the desired period of time, the destruction in % is determined. 100% means that all the leafhoppers have been killed; 0% means that none of the leafhoppers have been killed.

The next series deals with Myzus persicae. Briefly: Myzus test. It is filed as in vivo, Myzus persicae (green peach aphid). The settings on record: 144 h, after 6d, read-out: Degree of destruction in % after 6d. The method, then: as §2, §1, §3
Cabbage leaves (Brassica oleracea) which are severely infested with the green peach aphid (Myzus persicae) are treated by being dipped into the preparation of active compound of the desired concentration.
After the desired period of time, the destruction in % is determined. 100% means that all the aphids have been killed; 0% means that none of the aphids have been killed.

SMILES strings stand for the structures. Like-named read-outs stand apart in the source and are kept apart here.

In the case of `CC(C)(C)C(=O)NCCN1CC([N+](=O)[O-])=C2N(Cc3ccc(Cl)nc3)CCN2C1`, the mortality at 20 ppm in the series on Aphis fabae turned out to be 100%.
The inhibition is the percentage by which the read-out fell short of the control. Read a low inhibition as a response near the control. Regarding `CCOC(=O)NCCN1CC([N+](=O)[O-])=C2N(Cc3ccc(Cl)nc3)CCN2C1` [Example 3, 6,7-dihydro-6-(2-ethoxy-carbonylamino-ethyl)-8-nitro-(5H)-3-(2-chloropyridin-5-yl-methyl)-imidazolidino-[2,3-f] -pyrimidine], the “activity compared with the prior art” value in series [1] (24 hours) is on record as “superior activity compared with the prior art”. Also, the mortality at 100 ppm in series [1] (24 h) worked out at 100%. This compound also displayed an inhibition at 10 ppm with Ctenocephalides felis of 100%.
`CC(C)NC(=O)OCCN1CC([N+](=O)[O-])=C2N(Cc3ccc(Cl)nc3)CCN2C1` [Example 14]: the “activity compared with the prior art” value in series [1] (24 hours) is listed as “superior activity compared with the prior art”. For the same compound, the mortality at 100 ppm in series [1] (24 h) stood at 100%.
`CC(C)(C)OC(=O)NCCN1CC([N+](=O)[O-])=C2N(Cc3ccc(Cl)nc3)CCN2C1` [Example 16]: the “activity compared with the prior art” value in series [1] (24 hours) is “superior activity compared with the prior art”. In addition, the mortality at 100 ppm in series [1] (24 h) was determined as 100%. Moreover, the inhibition at 10 ppm in the series with Ctenocephalides felis is 100%. Moreover, the mortality at 1000 ppm in series [2] came to 100%.
Take `O=C(NCCN1CC([N+](=O)[O-])=C2N(Cc3ccc(Cl)nc3)CCN2C1)OCc1ccccc1` [Example 18]: the “activity compared with the prior art” value in series [1] (24 hours) was “superior activity compared with the prior art”. Moreover, the mortality at 100 ppm in series [1] (100 ppm, 24 hours) turned out to be 100%. Also, the inhibition at 10 ppm in the series on Ctenocephalides felis worked out at 100%.
For orientation: logP means a log measure of how a compound divides between an organic and an aqueous phase. The compound `O=[N+]([O-])C1=C2N(Cc3ccc(Cl)nc3)CCN2CN(CCCCCO)C1` [II-13] came in with a logP in “physchem” of 0.97.
Still for that read-out and setting: then `O=[N+]([O-])C1=C2N(Cc3ccc(Cl)nc3)CCN2CN(CCCCCCO)C1` [II-14], with 0.74; and `O=[N+]([O-])C1=C2N(Cc3cnc(Cl)s3)CCN2CN(CCCCO)C1` [II-17], with 0.58.
As for `O=[N+]([O-])C1=C2N(Cc3ccc(Cl)nc3)CCCN2CN(CCOCC(F)(F)F)C1` [drawing 134, reference compound], in the series with Nephotettix cincticeps, the mortality at 1e-05 % came to 0%, the mortality at 0.0001 % came to 60% and the mortality at 0.001 % was 100%.
The corresponding values for `CNC(=O)OCCCN1CC([N+](=O)[O-])=C2N(Cc3ccc(Cl)nc3)CCN2C1` [drawing 135] are 100%, 100% and 100%.
For `CC(=O)OCCCN1CC([N+](=O)[O-])=C2N(Cc3ccc(Cl)nc3)CCN2C1` [drawing 136], in the series on Nephotettix cincticeps, the mortality at 1e-05 % is 100%, the mortality at 0.0001 % was 100% and the mortality at 0.001 % was 100%.
As for `O=C(NCCCCCCCl)OCCCN1CC([N+](=O)[O-])=C2N(Cc3ccc(Cl)nc3)CCN2C1` [drawing 143], the mortality at 0.001 % with Myzus persicae (active compound concentration 0.001 %) amounted to 100%. Besides, in the series with Myzus persicae (active compound concentration 0.01 %), the mortality at 0.01 % was found to be 100%.

For the origin of these results see patent US6054459A, “Substituted 1,2,3,4-tetrahydro-5-nitro-pyrimidines” (priority 1994, dated 2000).
